According to publication PMC7990704 (Nature chemical biology, 2021):
Read-outs that look alike come from different tables or passages of the source.

Experiments:
[1] = molecular target: T1, Cdk2 (Homo sapiens, UniProt P24941, A93C/C118A/C177S/R157C); type: binding
[2] = tested on: Cdk2; parameters: species or system Human
[3] = molecular target: Cdk2 (Homo sapiens, UniProt P24941, A93C/C118A/C177S/S46C)
[4] = molecular target: T1, Cdk2
[5] = tested on: cells; settings: cited from earlier work
[6] = molecular target: pCdk4:cyclinD (Homo sapiens, UniProt P11802); assay: γ-33P radioactivity kinase assay with RB as substrate and 10 μM ATP; type: biochemical
Chain of pCdk4:cyclinD (P11802 whole entry): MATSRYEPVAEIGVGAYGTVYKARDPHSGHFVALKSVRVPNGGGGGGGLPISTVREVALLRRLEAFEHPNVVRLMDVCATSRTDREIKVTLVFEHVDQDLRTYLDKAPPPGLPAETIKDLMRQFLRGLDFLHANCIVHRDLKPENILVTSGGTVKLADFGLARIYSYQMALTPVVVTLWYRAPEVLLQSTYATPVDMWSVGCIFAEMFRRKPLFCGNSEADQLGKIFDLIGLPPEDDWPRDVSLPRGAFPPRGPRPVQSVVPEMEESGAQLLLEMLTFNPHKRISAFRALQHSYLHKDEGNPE
Chain of pCdk4:cyclinD (P24385 whole entry partner): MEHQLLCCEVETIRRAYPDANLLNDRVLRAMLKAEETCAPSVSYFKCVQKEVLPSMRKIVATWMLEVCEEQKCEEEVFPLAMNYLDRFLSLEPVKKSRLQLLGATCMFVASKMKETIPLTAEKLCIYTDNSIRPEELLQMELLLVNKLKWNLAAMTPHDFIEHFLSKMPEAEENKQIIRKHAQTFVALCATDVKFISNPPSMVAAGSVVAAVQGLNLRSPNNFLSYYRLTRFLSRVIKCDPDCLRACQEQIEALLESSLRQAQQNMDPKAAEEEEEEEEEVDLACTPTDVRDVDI

## CN1CC[C@H](c2c(O)cc(O)c3c(=O)cc(-c4ccccc4Cl)oc23)[C@H](O)C1 [flavopiridol]
[1]
  binding cooperativity between inhibitor and cyclin: 50 fold
[2]
  conformational effect on the A-loop (DEER): promoted the Aloop-out2 subpopulation
[3]
  conformational effect on the αC-helix (DEER): population shifts toward the αC-in state
[4]
  conformational effect on the A-loop (DEER): increased the Aloop-out1 subpopulation

## CCN1CCN(Cc2ccc(Nc3ncc(F)c(-c4cc(F)c5nc(C)n(C(C)C)c5c4)n3)nc2)CC1 [abemaciclib]
[5]
  Cdk1 substrate phosphorylation in cells: blocks Cdk1 substrate phosphorylation
  cell cycle effect in cells: triggers a G2 arrest
[6]
  potency for Cdk4 compared with palbociclib or ribociclib: greater potency

## CC(=O)c1c(C)c2cnc(Nc3ccc(N4CCNCC4)cn3)nc2n(C2CCCC2)c1=O [palbociclib]
[1]; Fig. 4d
  effect on the Aloop-in/out equilibrium (FRET): did not promote the Aloop-out state
[1]; Fig. 4d, cyclinA
  binding cooperativity with cyclin (in words): lacked substantial binding cooperativity with cyclin

## Nc1ncnc2c1ncn2[C@@H]1O[C@H](COP(=O)(O)OP(=O)(O)O)[C@@H](O)[C@H]1O [ADP]
[4]; monomeric Cdk2, inhibitor 250 µM
  conformational effect on the A-loop (DEER): promoted the Aloop-out state

## CN(C)C(=O)c1cc2cnc(Nc3ccc(N4CCNCC4)cn3)nc2n1C1CCCC1 [ribociclib]
[1]
  binding cooperativity with cyclin (in words): lacked substantial binding cooperativity with cyclin
  effect on the Aloop-in/out equilibrium (FRET): did not promote the Aloop-out state
